Data published in the PolyMetriX glass transition set.
± gives the standard deviation of the reports.

Structure (SMILES)	glass transition temperature [°C]
*CC(OC(=O)C(CC(C)C)NC(=O)OCc1ccccc1)C(COC(=O)O*)OC(=O)C(CC(C)C)NC(=O)OCc1ccccc1 (repeat unit)	50.90
*CC(*)c1ccc(C(=O)CCC)cc1 (repeat unit)	74.00
*CCNC(=O)CCCCC(=O)N* (repeat unit)	71.00
*O[Si](*)(C)CCCOc1ccc(C(=O)Oc2ccc(-c3ccc(OC(=O)CCCCC(=O)OC4CC(C)CCC4C(C)C)cc3)cc2)cc1 (repeat unit)	56.80
*c1ccc(-c2nc3cc(Oc4ccc5nc(*)c(-c6ccccc6)nc5c4)ccc3nc2-c2ccccc2)cc1 (repeat unit)	326.00
*CCCCOC(=O)NCC(F)(F)C(F)(F)C(F)(F)C(F)(F)CNC(=O)O* (repeat unit)	33.00
*CC(C[Si](*)(C)C)c1ccccc1 (repeat unit)	-5.00
*Oc1cccc(OC(=O)c2cc(OCCCCC)cc(C(*)=O)c2)c1 (repeat unit)	96.00
*CCCCCCCCCCOc1ccc(-c2cc(-c3ccc(-c4ccccc4)cc3)c(-c3ccc(NC(=O)c4ccc(C(=O)Nc5ccc(-c6c(-c7ccc(-c8ccccc8)cc7)cc(-c7ccc(O*)cc7)cc6-c6ccc(-c7ccccc7)cc6)cc5)cc4)cc3)c(-c3ccc(-c4ccccc4)cc3)c2)cc1 (repeat unit)	111.00
*c1ccc2c(c1)C(=O)N(c1cc(OCCN(CC)c3ccc(/N=N/c4ccc([N+](=O)[O-])cc4)cc3)cc(N3C(=O)c4ccc(C(*)(C(F)(F)F)C(F)(F)F)cc4C3=O)c1)C2=O (repeat unit)	210.00
*Cc1cc2cc(C(=O)Nc3cccc(NC(=O)c4cc5cc(*)c(OC(=O)COc6ccc7ccc(=O)oc7c6)cc5oc4=O)c3)c(=O)oc2cc1OC(=O)COc1ccc2ccc(=O)oc2c1 (repeat unit)	240.00
*c1cccc(-c2nc3cc(-c4ccc5c(c4)nc(*)n5C)ccc3[nH]2)c1 (repeat unit)	346.66
*c1ccc(-c2cnc3ccc(Oc4ccc5ncc(*)nc5c4)cc3n2)cc1 (repeat unit)	306.00
*C(=O)Nc1ccc(C2(c3ccc(N4C(=O)c5ccc(*)cc5C4=O)cc3)CCCCC2)cc1 (repeat unit)	319.00
*OC1C(C)(C)C(OC(=O)C2CCC(C(*)=O)CC2)C1(C)C (repeat unit)	169.00
*Oc1ccc(-c2ccc(Oc3ccc(/C(=N/c4ccc(/N=C(\c5ccccc5)c5ccc(*)cc5)cc4)c4ccccc4)cc3)cc2)cc1 (repeat unit)	195.00
*CC(C)(C)COC(=O)c1ccc(C(=O)O*)cc1 (repeat unit)	68.00
*CC(*)OCCOc1ccc(/C=C(\C#N)C(=O)OC)cc1 (repeat unit)	47.00
*CC(COc1ccccc1)O* (repeat unit)	42.00
*c1ccc(Oc2ccc(N3C(=O)c4ccc(Oc5c(C)cc(Cc6cc(C)c(Oc7ccc8c(c7)C(=O)N(*)C8=O)c(C)c6)cc5C)cc4C3=O)cc2)cc1 (repeat unit)	266.00
*c1ccc(-c2c(-c3ccc(-c4ccccc4)cc3)cc(-c3ccc(OCCCCCCOc4ccc(-c5cc(-c6ccc(-c7ccccc7)cc6)c(-c6ccc(-n7c(=O)c8cc9c(=O)n(*)c(=O)c9cc8c7=O)cc6)c(-c6ccc(-c7ccccc7)cc6)c5)cc4)cc3)cc2-c2ccc(-c3ccccc3)cc2)cc1 (repeat unit)	128.50
*Oc1ccc(NC(=O)c2cc(NC(=O)c3ccc(OC(C)=O)cc3)cc(C(=O)Nc3ccc(Oc4ccc(-c5ccc(*)cc5)cc4)cc3)c2)cc1 (repeat unit)	252.00

Structure (SMILES)	glass transition temperature [°C]
*Oc1ccc(CC(NC(=O)CCc2ccc(OC(=O)COCC(*)=O)cc2)C(=O)OC(C)CC)cc1 (repeat unit)	68.00
*O[Si](C)(C)O[Si](C)(C)O[Si](C)(C)O[Si](C)(C)O[Si](C)(C)OC(C)CCCCC(*)C (repeat unit)	-104.00
*CC/C=[C](/*)[Sn]([CH2]CCC)([CH2]CCC)[CH2]CCC (repeat unit)	-80.00
*Oc1ccc(Oc2ccc(C(=O)c3ccc(Oc4ccc(Oc5ccc(C(=O)c6ccc(*)c(C(C)C)c6)cc5)cc4)cc3)cc2C(C)C)cc1 (repeat unit)	145.00
*c1ccc(-c2ccc(-n3c(=O)c4cc5c(=O)n(*)c(=O)c5cc4c3=O)cc2C(F)(F)F)c(C(F)(F)F)c1 (repeat unit)	379.00 ± 21
*CC(*)C1CCCCC1C (repeat unit)	186.00
*Oc1ccc(C(=O)c2cccc(C(=O)c3ccc(*)cc3)c2)cc1 (repeat unit)	139.00
*c1ccc(Oc2cc(C(C)(C)C)c(Oc3ccc(N4C(=O)c5ccc(-c6ccc7c(c6)C(=O)N(*)C7=O)cc5C4=O)cc3)cc2C(C)(C)C)cc1 (repeat unit)	293.00
*C(=O)OCCN(CCOC(=O)c1ccc2c(c1)C(=O)N(c1cccc(N3C(=O)c4ccc(*)cc4C3=O)c1)C2=O)c1ccc(/N=N/c2ccc(F)cc2)cc1 (repeat unit)	168.00
*Oc1ccc(S(=O)(=O)c2ccc(Oc3ccc(C4(c5ccc(Oc6ccc(S(=O)(=O)c7ccc(Oc8ccc(/C=C9\CCCC/C(=C\c%10ccc(*)cc%10)C9=O)cc8)cc7)cc6)cc5)CCCCCC4)cc3)cc2)cc1 (repeat unit)	196.00
*C(=O)Nc1ccc(C(c2ccc(NC(=O)c3ccc4c(c3)C(=O)N(c3c(C)cc(C)c(N5C(=O)c6ccc(*)cc6C5=O)c3C)C4=O)cc2)(C(F)(F)F)C(F)(F)F)cc1 (repeat unit)	250.00
*CC(*)SC (repeat unit) [Poly(vinyl methyl sulfide) ]	-1 ± 1.2
*CCCCCCCCNC(=O)c1ccc(C(=O)N*)cc1 (repeat unit)	123.00
*CCCCNC(=O)C(=O)N* (repeat unit)	120.00
*Oc1ccc(S(=O)(=O)c2ccc(-c3ccc(*)cc3)cc2)cc1 (repeat unit)	269.00
*N=P(N=P(N=S(*)(=O)NCCCCCC)(NCCCCCC)NCCCCCC)(NCCCCCC)NCCCCCC (repeat unit)	-18.00
*=NP(=NP(=NC(=*)Oc1ccccc1)(Oc1ccccc1)Oc1ccccc1)(Oc1ccccc1)Oc1ccccc1 (repeat unit)	18.00
*O[Si](*)(C)CCCCCCOc1ccc(C(=O)Oc2ccc(C#N)cc2C)cc1 (repeat unit)	45.00
*c1nc(C)nc(N(CCCCCCN(*)c2ccccc2)c2ccccc2)n1 (repeat unit)	67.00
*c1ccc2c(c1)C(=O)N(c1cccc(C(=O)Nc3ccc(Oc4ccc(-c5ccc(Oc6ccc(NC(=O)c7cccc(N8C(=O)c9ccc(C(*)(C(F)(F)F)C(F)(F)F)cc9C8=O)c7)cc6)cc5)cc4)cc3)c1)C2=O (repeat unit)	280.00
*CCCC1(C)CCN(C(=O)CCCC(=O)N2CCC(*)(C)CC2)CC1 (repeat unit)	58.00
*CCCCCCCCOc1c(OC)cc(/C=C/c2cc(C(C)C)c(/C=C/c3cc(OC)c(O*)c(OC)c3)cc2C(C)C)cc1OC (repeat unit)	85.00

Structure (SMILES)	glass transition temperature [°C]
*CCN(*)C(=O)c1ccccc1F (repeat unit)	109.00
*Nc1cc(NC(=O)C(*)=O)ccc1C (repeat unit)	-54.6
*C(=O)Nc1ccc(Oc2ccc(N3C(=O)c4ccc(*)cc4C3=O)cc2)cc1 (repeat unit)	295.00
*CC(*)(C)C(=O)OCCCCCCOc1ccc(C(=O)Oc2ccc3ccc(=O)oc3c2)cc1 (repeat unit)	102.00
*Oc1ccc(OC(=O)c2cc(OCCCCCOCC3CCCN3c3ccc([N+](=O)[O-])cc3)c(C(*)=O)cc2OCCCCCOCC2CCCN2c2ccc([N+](=O)[O-])cc2)cc1 (repeat unit)	63.00
*CC(*)(CC(=O)OCCCc1ccccc1)C(=O)OCCCc1ccccc1 (repeat unit)	-8.00
*c1ccc(Oc2ccc(N3C(=O)c4ccc([Si](C)(C)c5ccc6c(c5)C(=O)N(*)C6=O)cc4C3=O)cc2)cc1 (repeat unit)	274.00
*O[Si](*)(C)CCCOc1ccc(C(=O)OC2CCC3(C)C(=CCC4C3CCC3(C)C(C(C)CCCC(C)C)CCC43)C2)cc1 (repeat unit)	61.10
*CCCC(=O)Nc1ccc(Cc2ccc(NC(=O)CCCN3C(=O)c4ccc(C(=O)c5ccc6c(c5)C(=O)N(*)C6=O)cc4C3=O)cc2)cc1 (repeat unit)	195.00
*Oc1cc(OC(=O)c2ccc(OCCC)cc2)c(OC(=O)CCCCCCCCCCCCCCC(*)=O)cc1OC(=O)c1ccc(OCCC)cc1 (repeat unit)	18.00
*c1ccc(CCc2ccc(N3C(=O)C(=O)N(c4ccc(CCc5ccccc5N5C(=O)C(=O)N(*)C5=O)cc4)C3=O)cc2)cc1 (repeat unit)	220.00
*c1cccc(P(C)(=O)c2cccc(N3C(=O)c4ccc(NC(=O)OCCOc5ccc(C(c6ccc(OCCOC(=O)Nc7ccc8c(c7)C(=O)N(*)C8=O)cc6)(C(F)(F)F)C(F)(F)F)cc5)cc4C3=O)c2)c1 (repeat unit)	204.00
*N=P(*)(C)CCCCCC (repeat unit)	-69.00
*Oc1cccc(Oc2ccc(C(=O)c3ccc(NC(=O)c4ccc(C(=O)Nc5ccc(C(=O)c6ccc(*)cc6)cc5)cc4)cc3)cc2)c1 (repeat unit)	190.00
*CCCCCCCCOc1ccc(C(c2ccc(O*)cc2)(C(F)(F)F)C(F)(F)F)cc1 (repeat unit)	27.80
*CC(C)C(*)(C)C (repeat unit)	37.00
*CC(*)C(=O)OCCCCCCCCCCCCCCCCCC (repeat unit) [Poly(octadecyl acrylate)]	-2.33 ± 57
*CC(*)C(=O)OCCSCCC#N (repeat unit)	-50.00
*CCCCCCOC(=O)OCCCCCCCCCCOC(=O)OCCCCCCn1c(=O)c2cc3c(=O)n(*)c(=O)c3cc2c1=O (repeat unit)	-2.00
*Oc1cc(C)c(*)c(C)c1Br (repeat unit)	280.1
